Laboratory results published in ChEMBL document CHEMBL1201862, “PubChem BioAssay data set” (2004).
The source made the active and inactive calls.

Key:
[1] = microbe, parasite or virus in culture; format: functional; details: Mycobacterium tuberculosis
[2] = target: T1, Protein RecA (Mycobacterium tuberculosis, UniProt P9WHJ3); assay: Fluorescence Cell-Free Homogeneous Dose Retest to Identify Inhibitors of RecA-Intein Splicing Activity. [Related pubchem assays (depositor defined):AID2097, AID2223, AID489010, AID492950]; format: functional
T1 sequence (P9WHJ3 whole entry): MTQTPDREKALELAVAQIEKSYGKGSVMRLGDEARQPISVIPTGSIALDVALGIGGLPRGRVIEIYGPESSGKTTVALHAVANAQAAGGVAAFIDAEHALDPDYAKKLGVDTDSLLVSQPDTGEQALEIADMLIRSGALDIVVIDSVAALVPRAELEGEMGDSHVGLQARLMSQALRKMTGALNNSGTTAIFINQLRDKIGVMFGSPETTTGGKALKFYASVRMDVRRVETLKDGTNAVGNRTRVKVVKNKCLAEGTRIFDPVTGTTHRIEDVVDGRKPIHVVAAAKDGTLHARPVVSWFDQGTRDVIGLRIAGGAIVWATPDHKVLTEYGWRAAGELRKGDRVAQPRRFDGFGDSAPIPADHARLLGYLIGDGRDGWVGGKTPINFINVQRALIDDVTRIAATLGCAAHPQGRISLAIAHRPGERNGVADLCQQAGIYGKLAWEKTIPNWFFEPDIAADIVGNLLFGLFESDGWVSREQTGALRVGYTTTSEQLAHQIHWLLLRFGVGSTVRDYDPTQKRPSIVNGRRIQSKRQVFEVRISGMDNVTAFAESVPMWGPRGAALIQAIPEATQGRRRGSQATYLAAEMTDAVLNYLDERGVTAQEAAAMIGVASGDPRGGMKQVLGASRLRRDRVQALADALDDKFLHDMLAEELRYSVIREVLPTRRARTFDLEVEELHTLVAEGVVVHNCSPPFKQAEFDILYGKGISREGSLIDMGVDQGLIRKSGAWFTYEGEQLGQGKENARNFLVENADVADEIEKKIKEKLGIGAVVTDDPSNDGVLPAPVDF

[3] = target: T2, Replicative DNA helicase DnaB (Mycobacterium tuberculosis, UniProt P9WMR3); assay: DnaB intein splicing inhibitors, dose response, biochemical, cell-free fluorescence (AID 449749); format: functional
T2 sequence (P9WMR3 whole entry): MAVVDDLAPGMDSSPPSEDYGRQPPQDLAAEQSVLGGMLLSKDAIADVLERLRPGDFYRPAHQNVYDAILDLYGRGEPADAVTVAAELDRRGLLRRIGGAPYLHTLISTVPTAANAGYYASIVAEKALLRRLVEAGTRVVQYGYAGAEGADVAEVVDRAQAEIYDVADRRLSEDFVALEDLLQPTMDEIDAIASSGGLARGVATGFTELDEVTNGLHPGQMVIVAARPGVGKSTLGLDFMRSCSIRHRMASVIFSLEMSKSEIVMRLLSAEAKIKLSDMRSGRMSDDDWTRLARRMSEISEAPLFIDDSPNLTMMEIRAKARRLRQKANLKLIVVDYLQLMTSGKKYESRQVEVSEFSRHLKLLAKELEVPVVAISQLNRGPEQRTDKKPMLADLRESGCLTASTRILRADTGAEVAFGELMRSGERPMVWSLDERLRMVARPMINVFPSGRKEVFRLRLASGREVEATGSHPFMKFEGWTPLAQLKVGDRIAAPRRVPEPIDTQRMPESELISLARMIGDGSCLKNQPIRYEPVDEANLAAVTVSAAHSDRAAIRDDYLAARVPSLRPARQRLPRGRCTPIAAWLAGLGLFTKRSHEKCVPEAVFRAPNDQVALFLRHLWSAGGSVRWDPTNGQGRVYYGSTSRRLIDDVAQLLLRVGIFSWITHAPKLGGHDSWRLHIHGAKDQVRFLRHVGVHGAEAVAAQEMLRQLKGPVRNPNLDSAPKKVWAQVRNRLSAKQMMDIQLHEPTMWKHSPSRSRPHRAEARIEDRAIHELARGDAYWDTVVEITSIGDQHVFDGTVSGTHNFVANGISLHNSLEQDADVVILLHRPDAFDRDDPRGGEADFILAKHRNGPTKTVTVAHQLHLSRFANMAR

[4] = system: H4; assay: Luminescence Cell-Based Dose Response HTS to Identify Activators of 5'UTR Stem-Loop Driven Prion Protein mRNA Translation in H4 Neuroglioblastoma Cells. [Related pubchem assays: 1829 (Project Summary), 1814 (Primary HTS)]; format: functional; details: Homo sapiens
[5] = Luminescence Cell-Based Dose Response HTS to Identify Activators of Luciferase Translation or Activity in H4 […] Cells. [Related pubchem assays: 1829 (Project Summary), 1814 (Primary HTS)]; format: functional
[6] = Luminescence Cell-Based Dose Confirmation HTS to Identify Activators of 5'UTR Stem-Loop Driven Alpha-Synuclein mRNA Translation in H4 Neuroglioblastoma Cells. [Related pubchem assays: 1829 (Project Summary), 1814 (Primary HTS)]; format: functional
[7] = NIH-3T3 fibroblast cytotoxicity, dose response, cytotoxicity control, cell-based, fluorescence, Alamar Blue, secondary assay (AID 2327); format: functional;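 also: NIH-3T3 mouse fibroblasts cultured with fluconazole at 8 µg/mL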
[8] = NIH3T3 cell viability loss – ATP luminescence, mouse fibroblasts, counter-screen, dose response (AID 2010); format: functional, cell-based;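 also: cells exposed to compound for about 90 hours before reading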
[9] = system: Streptococcus; assay: GAS UMAA2166 growth inhibition – luminescence, BacTiterGlo, counter-screen for streptokinase expression inhibitor project, dose response (AID 1915); format: functional, organism-based;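 also: potency for reduction of bacterial viability or growth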
[10] = system: Streptococcus sp. 'group A'; assay: Streptococcus pyogenes SK(-)GAS viability under kanamycin – luminescence, BacTiterGlo, confirmation, counter-screen for streptokinase expression inhibitor project, dose response (AID 1900); format: functional, organism-based
[11] = Trypanosoma cruzi growth suppression in host cells – NIH3T3 host cells, beta-gal luminescence, confirmation (AID 2044); format: functional, cell-based;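 also: intracellular parasites grown in NIH/3T3 mouse fibroblasts as host cells; luminescent beta-galactosidase reporter signal from transgenic T. cruzi replicating inside host cells; inhibitors lower the luminescence signal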
[12] = fluconazole-exposed Candida albicans growth modulators – fluorescence, retest, confirmation (AID 2467); format: functional, cell-based
[13] = target: T3, Streptokinase A (Streptococcus pyogenes serotype M1, UniProt P10520); assay: viability-normalized secreted streptokinase activity reduction – plasminogen activation absorbance, OD405, dose response (AID 1914); format: functional, Streptococcus pyogenes M1 GAS;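 also: secreted streptokinase activity via plasminogen activation per viability signal from cell pellet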
T3 sequence (P10520 whole entry): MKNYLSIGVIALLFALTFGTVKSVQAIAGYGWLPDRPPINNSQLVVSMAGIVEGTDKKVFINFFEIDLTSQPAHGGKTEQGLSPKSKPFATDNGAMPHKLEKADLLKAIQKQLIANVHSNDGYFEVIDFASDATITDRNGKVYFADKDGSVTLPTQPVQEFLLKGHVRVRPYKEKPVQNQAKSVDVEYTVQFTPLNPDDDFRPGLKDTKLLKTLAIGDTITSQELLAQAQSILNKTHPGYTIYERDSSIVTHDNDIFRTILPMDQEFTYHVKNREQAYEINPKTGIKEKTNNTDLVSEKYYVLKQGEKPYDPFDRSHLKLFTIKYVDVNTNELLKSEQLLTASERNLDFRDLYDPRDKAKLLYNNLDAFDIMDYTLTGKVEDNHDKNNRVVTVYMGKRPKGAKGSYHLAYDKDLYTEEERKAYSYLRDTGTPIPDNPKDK

[14] = system: BJ; assay: cells; format: functional, cell-based; details: Homo sapiens
[15] = system: BJ; assay: BJ-TERT fibroblast viability loss – cell-based, RAS-independent, luminescence, dose response (AID 1933); format: functional; details: Homo sapiens
[16] = DRD fibroblast viability loss – cell-based, non-viral oncogenic, luminescence, dose response (AID 1934); format: functional; details: Homo sapiens
[17] = system: BJ; assay: BJ-TERT-LT-ST fibroblast viability loss – cell-based, RAS-independent, luminescence, dose response (AID 1935); format: functional; details: Homo sapiens;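 also: BJ fibroblasts immortalized with TERT plus LT and ST oncogenes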
[18] = target: T4, Corticotropin-releasing factor receptor 2/Corticotropin-releasing factor-binding protein (Homo sapiens, UniProt P24387+Q13324); assay: Dose Response confirmation of uHTS hits for small molecule antagonists of the CRF-binding protein and CRF-R2 receptor complex.; format: functional; details: read-out: IC50_Mean
T4 sequence (Q13324 whole entry): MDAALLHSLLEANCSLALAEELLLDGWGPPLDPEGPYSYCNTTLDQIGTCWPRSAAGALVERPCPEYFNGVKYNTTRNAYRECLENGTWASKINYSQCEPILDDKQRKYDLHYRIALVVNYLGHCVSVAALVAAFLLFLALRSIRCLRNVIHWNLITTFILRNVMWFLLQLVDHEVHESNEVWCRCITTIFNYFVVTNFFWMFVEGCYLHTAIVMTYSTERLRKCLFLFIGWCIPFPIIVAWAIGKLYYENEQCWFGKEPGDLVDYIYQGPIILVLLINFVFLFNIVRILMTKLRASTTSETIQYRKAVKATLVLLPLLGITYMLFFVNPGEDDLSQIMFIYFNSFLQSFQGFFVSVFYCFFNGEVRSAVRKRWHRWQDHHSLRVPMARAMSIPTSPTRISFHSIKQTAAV
T4 sequence (P24387 whole entry): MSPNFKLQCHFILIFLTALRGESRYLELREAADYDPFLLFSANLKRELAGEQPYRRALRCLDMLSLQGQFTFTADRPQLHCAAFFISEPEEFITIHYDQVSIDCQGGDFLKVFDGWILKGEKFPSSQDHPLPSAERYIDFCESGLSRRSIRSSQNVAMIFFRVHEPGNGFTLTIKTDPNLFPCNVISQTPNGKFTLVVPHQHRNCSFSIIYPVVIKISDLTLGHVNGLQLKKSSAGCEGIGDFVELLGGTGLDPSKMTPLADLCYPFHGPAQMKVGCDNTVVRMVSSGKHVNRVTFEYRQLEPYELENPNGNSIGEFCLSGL

[19] = target: T4, Corticotropin-releasing factor receptor 2/Corticotropin-releasing factor-binding protein; assay: activators of CRF receptor 2 with binding protein – uHTS hits, confirmation (AID 602473); format: functional; details: read-out: EC50_Mean
[20] = target: T5, Polyadenylate-binding protein 1 (Homo sapiens, UniProt P11940); assay: MLLE domain peptide-binding blockers, IC50 – biochemical, fluorescence polarization, FITC-PAM2 peptide, dose response (AID 602259); format: functional; details: read-out: IC50_Mean
[21] = target: T5, Polyadenylate-binding protein 1; assay: MLLE binding blockers, Cy5 peptide tracer – biochemical, fluorescence polarization, Cy5-PAM2 peptide, secondary, miRNA deadenylation inhibitor project, dose response (AID 602260); format: functional; details: read-out: IC50_Mean
[22] = target: Cytochrome P450 2C19 (Homo sapiens, UniProt P33261); assay: Cytochrome panel assay with activity outcomes. Panel member name: p450-cyp2c19 Compounds with AC50 equal or less than 10 uM are considered active; format: functional; details: read-out: AC50
[23] = P. falciparum Dd2 growth inhibitors, dose response, SYBR Green, cherry-picked samples (AID 1159567); format: functional, cell-based

T5 sequence (P11940 whole entry, the tested form may be a part): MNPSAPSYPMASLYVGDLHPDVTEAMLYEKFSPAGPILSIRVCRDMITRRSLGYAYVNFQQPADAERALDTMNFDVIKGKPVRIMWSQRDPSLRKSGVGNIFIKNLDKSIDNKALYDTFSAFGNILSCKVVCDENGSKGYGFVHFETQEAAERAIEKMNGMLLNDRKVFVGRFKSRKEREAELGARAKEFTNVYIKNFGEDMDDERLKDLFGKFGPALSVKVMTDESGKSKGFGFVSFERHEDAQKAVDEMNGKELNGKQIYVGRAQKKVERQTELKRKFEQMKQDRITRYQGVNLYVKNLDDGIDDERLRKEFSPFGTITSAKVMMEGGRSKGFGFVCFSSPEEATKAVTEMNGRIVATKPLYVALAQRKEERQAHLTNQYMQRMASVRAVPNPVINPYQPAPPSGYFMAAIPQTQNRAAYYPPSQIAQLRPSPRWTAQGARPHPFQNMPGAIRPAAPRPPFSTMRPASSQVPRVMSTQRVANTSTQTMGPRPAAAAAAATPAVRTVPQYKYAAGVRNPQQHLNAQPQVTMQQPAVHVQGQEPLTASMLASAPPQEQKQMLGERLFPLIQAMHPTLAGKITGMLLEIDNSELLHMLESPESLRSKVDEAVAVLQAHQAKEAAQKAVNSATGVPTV
Cytochrome P450 2C19, sequence (P33261 whole entry): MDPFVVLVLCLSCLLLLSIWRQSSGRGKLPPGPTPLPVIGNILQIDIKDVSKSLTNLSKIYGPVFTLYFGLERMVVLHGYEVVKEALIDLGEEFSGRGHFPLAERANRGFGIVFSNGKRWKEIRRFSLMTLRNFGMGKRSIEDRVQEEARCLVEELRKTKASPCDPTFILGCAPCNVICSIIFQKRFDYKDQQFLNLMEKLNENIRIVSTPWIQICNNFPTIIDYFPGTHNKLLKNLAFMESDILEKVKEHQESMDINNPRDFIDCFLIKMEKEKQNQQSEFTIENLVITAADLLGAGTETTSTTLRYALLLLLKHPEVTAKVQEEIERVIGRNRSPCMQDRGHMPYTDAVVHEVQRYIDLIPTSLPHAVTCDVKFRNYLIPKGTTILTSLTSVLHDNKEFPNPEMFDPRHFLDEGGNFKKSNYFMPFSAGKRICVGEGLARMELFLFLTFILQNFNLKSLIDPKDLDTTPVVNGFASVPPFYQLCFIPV

O=C(Nc1ccc(Cl)cc1)N1CCN(c2ccc3nnc(-c4ccc(F)cc4)n3n2)CC1
CC50 [1]: 19.3 µM (active)

CCOC(=O)c1c(CC(C)C)csc1NC(=O)CCl
CC50 [1]: > 40 µM (active) | EC50 [2]: 2.39 µM (active) | AC50 [3]: 9.8 µM (active)

CCOc1ccc(-c2nc(C)c(C(C)=O)n2O)cc1
EC50 [4]: 8.13 µM (active) | EC50 [5]: 9.13 µM (active) | EC50 [6]: 14.1 µM (active)

COc1ccc(C2(c3ccc(OC)cc3)NC(=O)N(CC(=O)Nc3ccc(OC(F)F)cc3)C2=O)cc1
CC50 [1]: 36.2 µM (active)

COc1ccc(-c2cc(C3CCN(Cc4cccc(C(F)(F)F)c4)CC3)[nH]n2)cc1
EC50 [7]: > 160 µM (inactive) | EC50 [8]: > 60 µM (not active) | EC50 [9]: > 150 µM (not active) | EC50 [10]: 25.1 µM (active) | CC50 [1]: 35.5 µM (active) | EC50 [11]: 0.626 µM (active) | EC50 [12]: > 38 µM (not active) | EC50 [13]: > 150 µM (not active)

Clc1ccc(SCc2cn3ccsc3n2)cc1
EC50 [4]: > 120 µM (not active) | EC50 [5]: 21 µM (active) | EC50 [6]: 89.9 µM (active)

Cc1ccc(/C=C2\SC(=S)N(CCC(=O)N3CCCCC3)C2=O)cc1
EC50 [14]: > 150 µM (inconclusive) | EC50 [15]: > 150 µM (not active) | EC50 [16]: > 150 µM (not active) | EC50 [17]: > 150 µM (not active)

COc1cc2[nH]c3c(N4CCN(c5ccccn5)CC4)ncnc3c2cc1OC
CC50 [1]: 11.1 µM (active)

Cc1c(-c2ccc(Cl)cc2)[n+]([O-])c(-c2ccccc2)c[n+]1[O-]
IC50 [18]: > 47.1 µM (inactive) | EC50 [4]: > 120 µM (not active) | EC50 [19]: > 53 µM (inactive) | EC50 [5]: > 120 µM (not active) | EC50 [6]: > 120 µM (not active)

Cc1ccc(C(=O)c2nc3c(n2O)CCCC3)cc1
EC50 [4]: 25.7 µM (active) | EC50 [5]: > 120 µM (not active) | EC50 [6]: > 120 µM (not active)

O=C(/C=C/c1ccc(O)c([N+](=O)[O-])c1)c1ccc2ccccc2c1
CC50 [1]: > 40 µM (active) | EC50 [4]: 17.9 µM (active) | EC50 [5]: 14.5 µM (active) | EC50 [6]: 16.6 µM (active)

COc1cccc(Nc2ccc([N+](=O)[O-])c3nonc23)c1
CC50 [1]: > 40 µM (active)

CC(Oc1ccc2c(c1)c1ccnc3c4ccccc4c(=O)n2c13)C(=O)NCCN1CCOCC1 (stereo not given)
EC50 [4]: > 120 µM (not active) | EC50 [5]: 12.5 µM (active) | EC50 [6]: 19.6 µM (active)

COc1cccc(NC(=S)N/N=C2/CCCCc3ccccc32)c1
EC50 [4]: 33.6 µM (active) | IC50 [20]: > 66 µM (inactive) | IC50 [21]: > 66 µM (inactive) | EC50 [5]: 8.02 µM (active) | EC50 [6]: 7.09 µM (active)

OCC(O)/C=N/Nc1nc(Nc2ccccc2)nc(Nc2ccccc2)n1 (stereo not given)
CC50 [1]: > 40 µM (active)

COc1ccc(-c2nn(-c3ccccc3)cc2/C=N/NC(=O)c2ccc3c(c2)OCO3)cc1
AC50 [22]: 2.24 µM (inconclusive) | EC50 [4]: 18.5 µM (active) | EC50 [5]: 12.2 µM (active) | EC50 [6]: 18.3 µM (active)

C/C(=N\NC(=O)CN1CCCCC1)c1cccc([N+](=O)[O-])c1
EC50 [4]: 26.9 µM (active) | EC50 [5]: 9.5 µM (active) | EC50 [6]: 13.6 µM (active)

CO[C@@H]1CN(C)C(=O)c2ccc(NC(=O)c3nc4ccccc4s3)cc2OC[C@H](C)N(Cc2cccnc2)C[C@@H]1C
AC50 [23]: 5 µM (active)

COc1ccc2c3c([nH]c2c1)[C@H](CO)N(Cc1cccc(Cl)c1)CC31CCN(C(C)=O)CC1
AC50 [23]: 4.26 µM (active)
